# According to patent US5858667A, “Method for the enumeration of micronucleated erythrocyte populations with a single laser flow cytometer” (Litron Laboratories, priority 1996, dated 1999):
# Several values for one entry are separate records, joined by “and”; a condition that tells them apart may be missing. Equal values may be shown once. Entries after “also recorded” stand apart in the source; their conditions may differ.
# Experiments:
# [1] = system: normochromatic erythrocytes; experiment: Flow cytometric micronucleus assay (FITC-anti-CD71/propidium iodide), normochromatic erythrocytes, MMS-treated mice; assay type: in vivo, male BALB/c mice; settings: for Average Freq. (%) MN-NCE: average of 5 mice; for Freq. (%) MN-NCE / No. MN-NCE / No. NCE: individual mouse
# Method: (§1) Optimum flow cytometer settings are extremely important in this process. The fluorescent signals of the stained micronucleated normochromatic erythrocyte and micronucleated reticulocyte populations should be clearly resolved from those of the normochromatic erythrocyte and reticulocyte cell populations. In accordance with the method of the present invention, the analyses described herein were carried out with a single laser flow cytometer (Fac Star^PLUS ™, Becton Dickenson). The 5 W argon ion laser was tuned to provide 488 nm excitation. Cells were passed through the laser at an average rate of 2,500-8,000 erythrocytes/second. One embodiment of the invention is to use a 20μ elliptical beam that is focused at the sample stream. The results and analyses described herein were obtained with said beam. As known to those skilled in the art, different beam shapes are also acceptable.
# (§2) The flow cytometer is equipped with four photomultiplier tubes (PMTs) which are used to sense forward light scatter, side light scatter, red fluorescence signals, and green fluorescence signals. Proper filters must be placed before the green and red photomultiplier tubes. In accordance with the methods of the present invention, adequate fluorescent signals can be obtained if a 520 nm long pass filter and a 555 nm short pass filter is placed before the green PMT. In accordance with the methods of the present invention, a 580 nm long pass filter in front of the red PMT is desirable. This is a preferred configuration that allows optimal fluorescence detection. However, as known to those skilled in the art, other filter sets may be acceptable. The signals received by the PMTs and the light scatter photodiode are processed by an in-line computer and cell populations of interest are quantitated (see, e.g., FIG. 1) using software conventional to the art. The data may be acquired and processed as either logarithmic or linear signals. In one configuration of the invention, log data was acquired for the forward light scatter, side scatter, as well as red and green fluorescence peak height signals.
# (§3) Erythrocytes were isolated by gating on forward and side light scatter parameters. The stop mode of each analysis was reached when 500,000 total erythrocytes were interrogated. A window was set up corresponding to cells low in both fluorescence due to the labelled antibody with binding specificity for a surface marker for erythroblasts/reticulocytes (e.g., anti-CD71 antibody) and fluorescence due to the nucleic acid staining dye (e.g., propidium iodide), such as for detecting normochromatic erythrocytes in the erythrocyte population. A second gate was used to define cells low in anti-CD71 fluorescence and high in propidium iodide fluorescence, such as for detecting micronucleated normochromatic erythrocytes in the erythrocyte population. Another region corresponding to cells which were high in anti-CD71 fluorescence and low in propidium iodide fluorescence, such as for detecting reticulocytes in the erythrocyte population. A fourth region corresponding to cells which were high in both anti-CD71 fluorescence and in propidium iodide fluorescence was defined for detecting micronucleated reticulocytes in the erythrocyte population. Having defined these regions, the frequency of reticulocytes, micronucleated reticulocytes, micronucleated normochromatic erythrocytes, and normochromatic erythrocytes were automatically determined by the flow cytometry software.
# (§4) Propidium iodide and FITC have been employed to simultaneously label nucleic acids and cell surface antigens in human B-cell lymphomas (Kruth et al., 1981, Cancer Res. 41:4895-4899; Montecucco et al., 1985, Basic Appl. Histochem. 29:275-2821). In the method according to the present invention the combined use of a nucleic acid staining dye, such as propidium iodide, and FITC-antibody labeling is utilized to differentially stain micronucleated reticulocytes. […]
# reticulocytes = experiment: Flow cytometric micronucleus assay (FITC-anti-CD71/propidium iodide), reticulocytes, MMS-treated mice; assay type: in vivo, male BALB/c mice; settings: for Average Freq. (%) MN-RET: average of 5 mice; for Freq. (%) MN-RET / No. MN-RET / No. RET: individual mouse
# Method: as §1, §2, §3, §4
# micronuclei = settings: previous observations, different methodologies; cited from earlier work
# [2] = system: micronucleated polychromatic erythrocytes; settings: administered 2 hours before clastogen exposure; cited from earlier work
# [3] = 0-72 h after 100 mg MMS/kg i.p., in words
compound,measurement,setting,value
"COS(C)(=O)=O [MMS, methyl methanesulfonate]","micronuclei frequency in the mature normochromatic erythrocyte population, time course",[1]; [3],rise gradually over the course of the experiment; also recorded: rose slightly
same,Average Freq. (%) MN-NCE,[1]; 24 h after 100 mg MMS/kg i.p.,0.26%
same,Freq. (%) MN-NCE,[1]; 24 h after 100 mg MMS/kg i.p.,0.25% and 0.26% and 0.23% and 0.28%
same,No. MN-NCE,[1]; 24 h after 100 mg MMS/kg i.p.,1244 and 1287 and 1145 and 1254 and 1391
same,No. NCE,[1]; 24 h after 100 mg MMS/kg i.p.,490949 and 490112 and 488089 and 487462 and 490011
same,Average Freq. (%) MN-NCE,[1]; 40 h after 100 mg MMS/kg i.p.,0.28%
same,Freq. (%) MN-NCE,[1]; 40 h after 100 mg MMS/kg i.p.,0.29% and 0.26% and 0.24% and 0.30%
same,No. MN-NCE,[1]; 40 h after 100 mg MMS/kg i.p.,1405 and 1285 and 1178 and 1445 and 1458
same,No. NCE,[1]; 40 h after 100 mg MMS/kg i.p.,490511 and 485301 and 486302 and 484237 and 492350
same,Average Freq. (%) MN-NCE,[1]; 48 h after 100 mg MMS/kg i.p.,0.30%
same,Freq. (%) MN-NCE,[1]; 48 h after 100 mg MMS/kg i.p.,0.31% and 0.32% and 0.27%
same,No. MN-NCE,[1]; 48 h after 100 mg MMS/kg i.p.,1515 and 1538 and 1298 and 1517 and 1339
same,No. NCE,[1]; 48 h after 100 mg MMS/kg i.p.,487164 and 481651 and 480648 and 476364 and 490250
same,Average Freq. (%) MN-NCE,[1]; 72 h after 100 mg MMS/kg i.p.,0.34%
same,Freq. (%) MN-NCE,[1]; 72 h after 100 mg MMS/kg i.p.,0.34% and 0.36% and 0.35% and 0.33%
same,No. MN-NCE,[1]; 72 h after 100 mg MMS/kg i.p.,1593 and 1573 and 1607 and 1628 and 1575
same,No. NCE,[1]; 72 h after 100 mg MMS/kg i.p.,473052 and 462539 and 450096 and 461882 and 475141
same,"frequency of micronucleated reticulocytes, time course",reticulocytes; [3],rise sharply over the course of the first 40 hours; also recorded: rise and fall quickly
same,Average Freq. (%) MN-RET,reticulocytes; 24 h after 100 mg MMS/kg i.p.,0.81%
same,Freq. (%) MN-RET,reticulocytes; 24 h after 100 mg MMS/kg i.p.,0.54% and 0.93% and 0.69% and 1.31% and 0.58%
same,No. MN-RET,reticulocytes; 24 h after 100 mg MMS/kg i.p.,46 and 88 and 80 and 162 and 55
same,No. RET,reticulocytes; 24 h after 100 mg MMS/kg i.p.,8531 and 9390 and 11532 and 12234 and 9391
same,Average Freq. (%) MN-RET,reticulocytes; 40 h after 100 mg MMS/kg i.p.,4.20%
same,Freq. (%) MN-RET,reticulocytes; 40 h after 100 mg MMS/kg i.p.,4.41% and 4.18% and 4.89% and 3.81% and 3.72%
same,No. MN-RET,reticulocytes; 40 h after 100 mg MMS/kg i.p.,386 and 592 and 652 and 581 and 262
same,No. RET,reticulocytes; 40 h after 100 mg MMS/kg i.p.,8373 and 13570 and 12679 and 14533 and 6785
same,Average Freq. (%) MN-RET,reticulocytes; 48 h after 100 mg MMS/kg i.p.,2.25%
same,Freq. (%) MN-RET,reticulocytes; 48 h after 100 mg MMS/kg i.p.,2.92% and 2.09% and 2.10% and 1.86% and 2.29%
same,No. MN-RET,reticulocytes; 48 h after 100 mg MMS/kg i.p.,355 and 366 and 396 and 431 and 211
same,No. RET,reticulocytes; 48 h after 100 mg MMS/kg i.p.,11794 and 17187 and 18484 and 22687 and 8990
same,Average Freq. (%) MN-RET,reticulocytes; 72 h after 100 mg MMS/kg i.p.,0.41%
same,Freq. (%) MN-RET,reticulocytes; 72 h after 100 mg MMS/kg i.p.,0.43% and 0.40% and 0.46% and 0.34%
same,No. MN-RET,reticulocytes; 72 h after 100 mg MMS/kg i.p.,112 and 147 and 224 and 150 and 82
same,No. RET,reticulocytes; 72 h after 100 mg MMS/kg i.p.,25838 and 36327 and 48913 and 36940 and 23744
same,time of maximum response (micronuclei formation),micronuclei,36 h
chlorophyllin,effect on incidence of micronucleated polychromatic erythrocytes induced by gamma radiation,[2],reduced the incidence of micronucleated polychromatic erythrocytes
